In US5302610A, “Renal-selective biphenylmethyl imidazole angiotensin II antagonists for treatment of hypertension” (G. D. Searle & Co., priority 1991, dated 1994):

Experiments:
[1] = molecular target: smooth muscle angiotensin II receptor; experiment: Assay A: Angiotensin II Binding Activity; details: rat uterine membranes, 25° C., 60 min; read-out: Assay A IC50 (50% displacement of specifically bound 125I-AII)
Description: Other chemicals were obtained from Sigma Chemical Co. This assay was carried out according to the method of Douglas et al [Endocrinology, 106, 120-124 (1980)]. Rat uterine membranes were prepared from fresh tissue. All procedures were carried out at 4° C. Uteri were stripped of fat and homogenized in phosphate-buffered saline at pH 7.4 containing 5 mM EDTA. The homogenate was centrifuged at 1500×g for 20 min., and the supernatant was recentrifuged at 100,000×g for 60 min. The pellet was resuspended in buffer consisting of 2 mM EDTA and 50 mM Tris-HCl (pH 7.5) to a final protein concentration of 4 mg/ml. […] The reaction was initiated by the addition of membrane protein and the mixture was incubated at 25° C. for 60 min. The incubation was terminated with ice-cold 50 mM Tris-HCl (pH 7.5) and the mixture was filtered to separate membrane-bound labelled peptide from the free ligand. The incubation tube and filter were washed with ice-cold buffer. Filters were assayed for radioactivity in a Micromedic gamma counter. Nonspecific binding was defined as binding in the presence of 10 μM of unlabelled AII. Specific binding was calculated as total binding minus nonspecific binding. […] Binding data were analyzed by a nonlinear least-squares curve fitting program.

AII receptor = experiment: Assay C: In Vivo Intravenous Pressor Assay Response for AII Antagonists; design: species or system male Sprague-Dawley rats, ganglion-blocked
Description: The in vivo AII receptor antagonist activity of Example #5 compound was examined in ganglion-blocked male Sprague-Dawley rats (Harlan Sprague-Dawley, Inc.), weighing 300-400 g, anesthetized with 100 mg/kg i.p. Inactin. Catheters (PE-50) were implanted in a femoral artery and vein to measure mean arterial pressure and to administer compounds, respectively. A tracheal catheter maintained airway patency. For intravenous experiments, autonomic neurotransmission was blocked by treatment with mecamylamine (3 mg/kg i.v.) and atropine (400 μg/kg i.v.). AII (30 ng/kg i.v., 20-25 μl volume) was administered four times at 10 minute intervals to establish a reproducible control pressor response. Example #5 compound was then administered at 1, 3 and 10 mg/kg in separate groups of rats as an intravenous bolus (0.2 ml volume) before rechallenging with AII (30 ng/kg, 20-25 μl volume) for the following 2 hours. For intraduodenal experiments, rats were anesthetized as above, but ganglion blockade was not performed. AII was administered at 100 ng/kg i.v. (20-25 μl volume), and was administered at 10, 30 and 100 mg/kg in separate groups of rats as an intraduodenal bolus (0.2 ml volume). Angiotensin II injections were then given 5, 10, 20, 30, 45, 60, 75, 90, and 120 minutes after administration of the test compound and response of arterial pressure was monitored. The response to AII was calculated as percent of the control response and then the percent inhibition was calculated as 100 minus the percent control response. Duration of action of a test compound was defined as the time from peak percent inhibition to 50% of peak. The test compound was tested in two rats and the values for the two rats were averaged.

CCCCc1nc(Cl)c(CO)n1Cc1ccc(-c2ccccc2C(=O)O)cc1 [Example 5]
IC50 [1]: 0.216 ± 0.045 µM | % Control of AII Pressor Response (AII receptor; 1 mg/kg i.v., 1 min): 80% | % Control of AII Pressor Response (AII receptor; 1 mg/kg i.v., 5 min): 85% | % Control of AII Pressor Response (AII receptor; 1 mg/kg i.v., 10 min): 92% | % Control of AII Pressor Response (AII receptor; 1 mg/kg i.v., 20 min): 90% | % Control of AII Pressor Response (AII receptor; 1 mg/kg i.v., 30 min): 88% | % Control of AII Pressor Response (AII receptor; 1 mg/kg i.v., 40 min): 86% | % Control of AII Pressor Response (AII receptor; 1 mg/kg i.v., 50 min): 86% | % Control of AII Pressor Response (AII receptor; 1 mg/kg i.v., 60 min): 89% | % Control of AII Pressor Response (AII receptor; 1 mg/kg i.v., 75 min): 93% | % Control of AII Pressor Response (AII receptor; 1 mg/kg i.v., 90 min): 95% | % Control of AII Pressor Response (AII receptor; 1 mg/kg i.v., 120 min): 100% | % Control of AII Pressor Response (AII receptor; 3 mg/kg i.v., 1 min): 39% | % Control of AII Pressor Response (AII receptor; 3 mg/kg i.v., 5 min): 55% | % Control of AII Pressor Response (AII receptor; 3 mg/kg i.v., 10 min): 63% | % Control of AII Pressor Response (AII receptor; 3 mg/kg i.v., 20 min): 68% | % Control of AII Pressor Response (AII receptor; 3 mg/kg i.v., 30 min): 74% | % Control of AII Pressor Response (AII receptor; 3 mg/kg i.v., 40 min): 75% | % Control of AII Pressor Response (AII receptor; 3 mg/kg i.v., 50 min): 75% | % Control of AII Pressor Response (AII receptor; 3 mg/kg i.v., 60 min): 81% | % Control of AII Pressor Response (AII receptor; 3 mg/kg i.v., 75 min): 88% | % Control of AII Pressor Response (AII receptor; 3 mg/kg i.v., 90 min): 92% | % Control of AII Pressor Response (AII receptor; 3 mg/kg i.v., 120 min): 98% | % Control of AII Pressor Response (AII receptor; 10 mg/kg i.v., 1 min): 4% | % Control of AII Pressor Response (AII receptor; 10 mg/kg i.v., 5 min): 16% | % Control of AII Pressor Response (AII receptor; 10 mg/kg i.v., 10 min): 23% | % Control of AII Pressor Response (AII receptor; 10 mg/kg i.v., 20 min): 31% | % Control of AII Pressor Response (AII receptor; 10 mg/kg i.v., 30 min): 40% | % Control of AII Pressor Response (AII receptor; 10 mg/kg i.v., 40 min): 47% | % Control of AII Pressor Response (AII receptor; 10 mg/kg i.v., 50 min): 51% | % Control of AII Pressor Response (AII receptor; 10 mg/kg i.v., 60 min): 60% | % Control of AII Pressor Response (AII receptor; 10 mg/kg i.v., 75 min): 71% | % Control of AII Pressor Response (AII receptor; 10 mg/kg i.v., 90 min): 80% | % Control of AII Pressor Response (AII receptor; 10 mg/kg i.v., 120 min): 96%
